The test deals with T1, human tyrosinase (Homo sapiens, UniProt P14679).
T1 construct: endogenous in cells; host or cells: SKMEL 188 human melanoma cell line (lysate)
T1 sequence (P14679 19-529): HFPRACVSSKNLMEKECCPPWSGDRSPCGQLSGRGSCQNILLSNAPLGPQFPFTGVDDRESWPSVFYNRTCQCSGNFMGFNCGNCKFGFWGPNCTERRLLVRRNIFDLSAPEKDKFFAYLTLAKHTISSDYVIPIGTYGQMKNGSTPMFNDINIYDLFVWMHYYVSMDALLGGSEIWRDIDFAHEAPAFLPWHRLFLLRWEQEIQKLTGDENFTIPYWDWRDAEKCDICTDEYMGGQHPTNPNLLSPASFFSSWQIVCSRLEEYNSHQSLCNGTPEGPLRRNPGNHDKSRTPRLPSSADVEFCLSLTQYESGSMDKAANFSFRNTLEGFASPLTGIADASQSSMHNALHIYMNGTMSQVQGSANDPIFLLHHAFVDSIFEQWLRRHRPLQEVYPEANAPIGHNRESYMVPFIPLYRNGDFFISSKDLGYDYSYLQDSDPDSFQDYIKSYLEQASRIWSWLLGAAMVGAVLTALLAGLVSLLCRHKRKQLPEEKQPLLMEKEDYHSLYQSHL
The test can be described thus: Tyrosinase (DOPA oxidase) assay using cell lysate. The class given is biochemical. To be noted: SKMEL 188 cell lysates; L-DOPA 100 μg/ml; incubated 8 hrs; read at 405 nm. On the procedure: 1. Tyrosinase (DOPA Oxidase) Assay Using Cell Lysate:
Human melanoma cell line, SKMEL 188 (licensed from Memorial Sloan-Kettering), is used in the cell lysate assay and the screen. In the assay, compounds and L-dihydroxyphenylalanine (L-DOPA) (100 μg/ml) are incubated with the cell lysates containing human tyrosinase for 8 hrs before the plates are read at 405 nm.

Compound `N[C@H](Cc1ccccc1)C(=O)O[C@H]1CC[C@H](c2ccc(O)cc2O)CC1` [Example 22, trans-4-(2,4-Dihydroxyphenyl)cyclohexyl (2R)-2-amino-3-phenylpropanoate] came in with an IC50 of approximately 2000 nM.

The values are drawn from patent publication US6797731B2, “Resorcinol derivatives” (Pfizer Inc., priority 2000, dated 2004).
